{
  "source": "paper PMC12645437",
  "about": "“Orthogonal IMiD-Degron Pairs Induce Selective Protein Degradation in Cells” (ACS Chemical Biology, 2025)",
  "key": {"[1]": {"target": "T1, endogenous IKZF3 in Jurkat cells (Homo sapiens, UniProt Q96SW2+Q9UKT9)", "T1 construct": "endogenous in cells; host or cells: Jurkat (transduced with ZF-EGFP constructs, or untransduced)", "test": "Western blot for endogenous IKZF3", "assay_type": "cell-based", "settings": "18 h"}, "[2]": {"target": "T2, WT IKZF3-derived degron fused to EGFP (Homo sapiens, UniProt Q96SW2+Q9UKT9)", "T2 construct": "Plasmid: pLVX-Sprout-IKZF3 130-189aa (WT); expressed in transfected cells", "T2 sequence (Q9UKT9 130-189)": "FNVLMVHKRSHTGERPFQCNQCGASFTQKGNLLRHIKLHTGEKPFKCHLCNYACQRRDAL", "T2 sequence (Q96SW2 whole entry, the tested form may be a part)": "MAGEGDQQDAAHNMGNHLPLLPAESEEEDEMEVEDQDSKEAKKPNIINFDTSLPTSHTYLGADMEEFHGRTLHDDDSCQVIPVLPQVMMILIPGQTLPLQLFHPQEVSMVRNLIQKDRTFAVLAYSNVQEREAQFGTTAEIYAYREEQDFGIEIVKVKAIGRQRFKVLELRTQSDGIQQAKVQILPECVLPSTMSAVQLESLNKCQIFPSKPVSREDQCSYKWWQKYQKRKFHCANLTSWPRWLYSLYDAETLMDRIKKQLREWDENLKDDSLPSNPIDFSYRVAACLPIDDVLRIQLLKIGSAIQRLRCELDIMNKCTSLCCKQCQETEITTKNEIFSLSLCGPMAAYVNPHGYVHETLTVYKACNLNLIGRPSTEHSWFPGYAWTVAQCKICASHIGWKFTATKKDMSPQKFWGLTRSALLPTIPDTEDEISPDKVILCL", "T2 sequence (Q16531 whole entry partner, the tested form may be a part)": "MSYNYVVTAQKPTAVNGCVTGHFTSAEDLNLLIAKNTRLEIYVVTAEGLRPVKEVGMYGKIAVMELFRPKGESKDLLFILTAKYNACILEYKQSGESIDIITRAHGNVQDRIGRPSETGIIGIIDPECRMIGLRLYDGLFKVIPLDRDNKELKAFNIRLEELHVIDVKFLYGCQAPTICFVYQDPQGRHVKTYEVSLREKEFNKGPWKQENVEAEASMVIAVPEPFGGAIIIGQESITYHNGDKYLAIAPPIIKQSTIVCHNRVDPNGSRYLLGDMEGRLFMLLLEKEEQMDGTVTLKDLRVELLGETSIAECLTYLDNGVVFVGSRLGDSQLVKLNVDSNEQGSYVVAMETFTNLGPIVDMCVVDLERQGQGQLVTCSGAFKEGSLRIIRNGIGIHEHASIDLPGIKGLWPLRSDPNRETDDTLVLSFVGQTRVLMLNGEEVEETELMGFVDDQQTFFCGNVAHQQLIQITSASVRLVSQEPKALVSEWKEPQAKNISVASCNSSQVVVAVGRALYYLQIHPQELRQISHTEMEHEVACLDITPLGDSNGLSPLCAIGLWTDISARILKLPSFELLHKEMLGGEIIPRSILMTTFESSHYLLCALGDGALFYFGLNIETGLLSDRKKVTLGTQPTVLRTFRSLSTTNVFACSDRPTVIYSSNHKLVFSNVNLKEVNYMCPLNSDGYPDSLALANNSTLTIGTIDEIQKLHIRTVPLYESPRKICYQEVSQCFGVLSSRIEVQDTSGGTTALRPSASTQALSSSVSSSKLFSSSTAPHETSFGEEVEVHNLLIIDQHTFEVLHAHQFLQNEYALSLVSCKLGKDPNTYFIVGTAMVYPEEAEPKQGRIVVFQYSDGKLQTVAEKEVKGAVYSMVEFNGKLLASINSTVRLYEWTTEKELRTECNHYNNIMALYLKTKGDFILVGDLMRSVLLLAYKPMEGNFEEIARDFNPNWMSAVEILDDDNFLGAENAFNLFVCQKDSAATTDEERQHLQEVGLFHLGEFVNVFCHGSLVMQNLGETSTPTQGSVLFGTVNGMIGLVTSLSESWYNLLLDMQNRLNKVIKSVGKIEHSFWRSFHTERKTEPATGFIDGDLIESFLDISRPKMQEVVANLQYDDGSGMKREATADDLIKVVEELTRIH", "test": "Ratiometric EGFP:mCherry flow cytometry degradation assay, 18 h", "assay_type": "cell-based", "settings": "Jurkat"}, "[3]": {"target": "T3, WEIS-EGFP degron in Jurkat cells (Homo sapiens, UniProt Q96SW2+Q9UKT9, N149E/Q147W/Q150I)", "T3 construct": "pLVX-Sprout-IKZF3 130-189aa Q147W N149E Q150I (WEIS); expressed in transfected cells", "T3 sequence (Q9UKT9 130-189 Q147W/N149E/Q150I)": "as the sequence (Q9UKT9 130-189) above, with Q18W, N20E, Q21I counted along it", "T3 sequence (Q96SW2 whole entry)": "as the sequence (Q96SW2 whole entry, the tested form may be a part) above", "T3 sequence (Q16531 whole entry partner)": "as the sequence (Q16531 whole entry partner, the tested form may be a part) above", "test": "GFP degradation flow cytometry assay with proteasome inhibitor carfilzomib", "assay_type": "cell-based", "settings": "carfilzomib (1 μM) pre-incubation; 1-24 h"}, "[4]": {"target": "WNQS mutant ZF degron fused to EGFP (Homo sapiens, UniProt Q96SW2+Q9UKT9, Q147W)", "sequence (Q9UKT9 130-189 Q147W)": "as the sequence (Q9UKT9 130-189) above, with Q18W counted along it", "sequence (Q96SW2 whole entry, the tested form may be a part)": "as the sequence (Q96SW2 whole entry, the tested form may be a part) above", "sequence (Q16531 whole entry partner, the tested form may be a part)": "as the sequence (Q16531 whole entry partner, the tested form may be a part) above", "test": "Ratiometric EGFP:mCherry flow cytometry degradation assay, 18 h"}, "[5]": {"test_system": "library of 8380 IKZF3 degrons fused to EGFP in Jurkat cells", "test": "Pooled mutant ZF degron library screen (FACS EGFPlow vs EGFP+, NGS), 18 h;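 for logFC: Log2 fold change of EGFPlow over EGFP+ representation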", "assay_type": "cell-based, human"}, "[6]": {"target": "T4, TRIM28 with N-terminal WEIS degron tag and HiBit tag (Homo sapiens, UniProt Q96SW2+Q9UKT9, N149E/Q147W/Q150I)", "T4 construct": "pLVX-Sprout-IKZF3 130-189aa Q147W N149E Q150I (WEIS); TRIM28 (fusion partner / protein of interest, gene TRIM28, human entry Q13263 by my knowledge); expressed in transfected cells; host or cells: Jurkat, lentiviral transduction; endogenous TRIM28 knocked out by CRISPR", "T4 sequence (Q9UKT9 130-189 Q147W/N149E/Q150I)": "as the sequence (Q9UKT9 130-189) above, with Q18W, N20E, Q21I counted along it", "T4 sequence (Q96SW2 whole entry, the tested form may be a part)": "as the sequence (Q96SW2 whole entry, the tested form may be a part) above", "test": "HiBiT luminescence degradation assay", "assay_type": "cell-based", "settings": "Jurkat, 24 h"}, "[7]": {"target": "T5, HA-NanoLuc-WEIS (Homo sapiens, UniProt Q96SW2+Q9UKT9, N149E/Q147W/Q150I)", "T5 construct": "pLVX-Sprout-IKZF3 130-189aa Q147W N149E Q150I (WEIS); expressed in transfected cells; host or cells: HEK293T, lentiviral transduction, puromycin-selected", "T5 sequence (Q9UKT9 130-189 Q147W/N149E/Q150I)": "as the sequence (Q9UKT9 130-189) above, with Q18W, N20E, Q21I counted along it", "T5 sequence (Q96SW2 whole entry)": "as the sequence (Q96SW2 whole entry, the tested form may be a part) above", "T5 sequence (Q16531 whole entry partner)": "as the sequence (Q16531 whole entry partner, the tested form may be a part) above", "test": "Nano-Glo luminescence assay in HEK293T cells", "assay_type": "cell-based", "settings": "NanoGlo", "method": "To this end, a nuclear protein, CDK9, and a cytoplasmic protein, HPRT1, were selected, in addition to a well-characterized enzyme capable of generating bioluminescence, NanoLuc. , Fusion constructs comprising a POI with an N-terminal HA tag linked to the POI by two glycine residues and a C-terminal WEIS motif linked to the POI by a flexible [sequence] linker region were exogenously expressed in HEK293T cells.\nCompound 23 (10 mM stock in DMSO) was serially diluted 10-fold to create an 5-point dilution spanning 1n M–10 μM (final assay concentration) and an untreated control, with all concentrations at 0.1% DMSO. HEK293T cells transduced with HA-NanoLuc-WEIS lentiviral vectors were seeded in white, opaque, flat-bottom 96-well plate (Falcon) at 2 × 10^4 cells per well in 40 µL\nsignal was measured by adding 40 µL of the Nano-Glo lytic detection reagent (Promega),\nincubating at rt for 3 minutes, then reading using an EnVision multimode plate reader\n(PerkinElmer). […] Three biological repeats\nwere carried out for this assay, with each biological replicate plate comprising three replicate"}, "[8]": {"test_system": "Jurkat cells", "test": "TMTpro quantitative proteomics, 16 h", "settings": "Jurkat, 10 μM, 16 h; 9644 quantified proteins", "method": "Quantitative proteomics screens were carried out in untransduced Jurkat cells, embryonic stem cells (ESCs), and the multiple myeloma cell line, MM.1S. We used Jurkat cells, as our work up to this point had employed this cell line, and we selected ESCs and MM.1S cells as they express known CRBN neosubstrates, including IKZF1, IKZF3, RAB28, RNF166, SALL4, ZFP91, and ZNF827.\nProteomics - cell lysis and protein digestion\nThe viability of Jurkat cells was tested after 16-h treatment with corresponding chemicals\nviable cells in each condition. Next, ~10^7 cells per condition were collected by centrifugation (1000 rpm), washed twice with ice-cold PBS, and lysed in RIPA buffer [50 mM HEPES pH 7.4, 150 mM NaCl, 1% sodium deoxycholate, 1% NP-40, 0.1% SDS, 10 mM sodium pyrophosphate, 10 mM β-glycerophosphate, 2.5 mM MgCl2, 200 µM TCEP, phosphatase and protease inhibitor cocktail (in-house)], to produce whole cell extracts. Whole-cell extracts were sonicated, and protein concentrations were determined using the Bradford assay. Protein extracts (100 µg) were subjected to disulfide bond reduction with 5 mM TCEP (10 min) and alkylation with 25 mM chloroacetamide (20 min). Methanol–chloroform precipitation was performed prior to protease digestion. In brief, four parts of neat methanol were added to each sample and vortexed, one part chloroform was added to the sample and vortexed, and finally, three parts water was added to the sample and vortexed. The sample was centrifuged at 8000 rpm for 5 min at room temperature and subsequently washed twice with 100% methanol. Samples were resuspended in 100 mM EPPS pH8.5 containing\n0.1% RapiGest and digested at 37 °C for 6 h with trypsin at a 100:1 protein-to-protease ratio.\nSamples were then subjected to TMTpro\nlabeling. The preparation of MM1S cell extracts was conducted using the same procedure as for\nJurkat cells. ESC cells were plated onto 6 cm dishes 24 hours prior to the chemical treatment.\nFollowing the chemical treatment, the cells on the dish were washed with DPBS four times, after\nwhich RIPA buffer was added directly to the dish, and the lysate was collected using a scraper.\nThe whole cell lysates were then processed similarly to the Jurkat cell lysates.\nProteomics - Tandem mass tag labeling\nProline-based reporter isobaric Tandem Mass Tag (TMTpro) labeling of dried peptide samples\nresuspended in 100 mM EPPS pH 8.5, was carried out as follows. TMTpro reagent was added to\nsamples (100 µg peptide), along with acetonitrile, to achieve a final acetonitrile concentration of\napproximately 30% (v/v). Following incubation at room temperature for 1 h, the labeling efficiency\nof a small aliquot was tested. The reaction was then quenched with hydroxylamine to a final\nconcentration of 0.5% (v/v) for 15 min. The TMTpro-labeled samples were pooled together at a\n1:1 ratio. The sample was vacuum centrifuged to near dryness and subjected to C18 solid-phase\nThe dried TMTpro-labeled sample was resuspended in 100 μL of 10 mM NH4HCO3 pH 8.0 and\nfractionated using basic pH reverse phase HPLC 40. Briefly, samples were offline fractionated over\na 90 min run, into 96 fractions by high pH reverse-phase HPLC (Agilent LC1260) through an aeris\npeptide xb-c18 column (Phenomenex; 250 mm × 3.6 mm) for total proteome with mobile phase A\ncontaining 5% acetonitrile and 10 mM NH4HCO3, and mobile phase B containing 90% acetonitrile"}, "[9]": {"target": "T6, endogenous IKZF1 in Jurkat cells (Homo sapiens, UniProt Q13422+Q96SW2)", "T6 construct": "endogenous in cells; host or cells: Jurkat (untransduced for immunostaining; WEIS-EGFP-transduced for the blot)", "test": "Endogenous IKZF1 immunostaining, fluorescent antibody flow cytometry assay", "assay_type": "cell-based", "settings": "18 h", "protocol": "As we sought to screen a large number of mutant ZF degrons with different mutation combinations, we pursued a library screen approach similar to that previously employed by Sievers et al. and Jan et al. , Only the most promising compounds from the original set of 36 were used for the library screen. To help narrow the candidates, a subset of compounds was tested for endogenous IKZF1 degradation in Jurkat cells using a fluorescent antibody flow cytometry assay (Figure S5). […] Thalidomide and lenalidomide were also included as controls.\nEndogenous IKZF1 Immunostaining\n37 °C and 5% CO2. Following incubation, cells were stained with LIVE/DEAD™ Fixable Aqua Dead Cell Stain (Thermo) diluted 1000X in PBS for 30 min at room temperature and then incubated with Human TruStain FcX block (Biolegend) diluted 40X in PBS + 1% FBS (Gibco) for 10 min at room temperature. Intranuclear staining of IKZF1 was carried out using the Transcription Factor Buffer Set (BD Bioscience) according to the manufacturer's protocol and staining with IKZF1 AF488 antibody (clone R32-1149, BD Bioscience) diluted 40X for 30 minutes at room temperature. Cells were acquired on a Cytoflex S (Beckman Coulter) and data analysed using FlowJo 10.8.1 9 (BD)."}, "[10]": {"target": "T7, Q147A mutant degron (ANQS) fused to EGFP (Homo sapiens, UniProt Q96SW2+Q9UKT9, Q147A)", "T7 construct": "pLVX-Sprout-IKZF3 130-189aa Q147A (ANQS); expressed in transfected cells", "T7 sequence (Q9UKT9 130-189 Q147A)": "as the sequence (Q9UKT9 130-189) above, with Q18A counted along it", "T7 sequence (Q96SW2 whole entry, the tested form may be a part)": "as the sequence (Q96SW2 whole entry, the tested form may be a part) above", "T7 sequence (Q16531 whole entry partner, the tested form may be a part)": "as the sequence (Q16531 whole entry partner, the tested form may be a part) above", "test": "Ratiometric EGFP:mCherry flow cytometry degradation assay, 18 h", "assay_type": "cell-based", "settings": "Jurkat, 18 h; Fig 2B; read-out: DMax Q147A/%"}},
  "note": "Several values for one entry are separate records, joined by “and”; a condition that tells them apart may be missing. Equal values may be shown once.",
  "data": [
    {"smiles": "CN1CCN(c2ccc3c(c2)C(=O)N(C2CCC(=O)NC2=O)C3=O)CC1", "note": "(stereo not drawn) [Compound 23]", "values": [
      {"measurement": "endogenous IKZF3 levels (Western blot)", "setting": "[1]; transduced Jurkat cells", "value": "remained unaffected"},
      {"measurement": "degradation of endogenous IKZF3 (Western blot)", "setting": "[1]; untransduced Jurkat cells", "value": "do not induce degradation of endogenous IKZF3"},
      {"measurement": "Degradation pDC50 WT", "setting": "[2]; Fig 2B", "value": 5.96},
      {"measurement": "DC50", "setting": "[2]; WT degron, Fig 5A", "value": 631, "unit": "nM"},
      {"measurement": "pDC50", "setting": "[2]; WT degron, Fig 5A", "value": 6.20},
      {"measurement": "WEIS-EGFP degradation with carfilzomib", "setting": "[3]", "value": "rescued"},
      {"measurement": "Selectivity (WT/mutant)", "setting": "[4]; DC50(WT)/DC50(WNQS)", "value": 5},
      {"measurement": "DC50", "setting": "[4]; WNQS, Jurkat, 18 h", "value": 126, "unit": "nM"},
      {"measurement": "pDC50", "setting": "[4]; WNQS, Jurkat, 18 h", "value": 6.90},
      {"measurement": "Log2FC", "setting": "[5]; WT degron, residues 146/147/149/150/152/153/154/155/167: FQNQGASFL", "value": "-1.4561 and -1.46"},
      {"measurement": "logFC", "setting": "[5]; degron residues 146/147/149/150/152/153/154/155/167: FADIGAAFL", "value": 2.104},
      {"measurement": "logFC", "setting": "[5]; degron residues 146/147/149/150/152/153/154/155/167: FADIGACFL", "value": 0.9928},
      {"measurement": "logFC", "setting": "[5]; degron residues 146/147/149/150/152/153/154/155/167: FADIGADFL", "value": -0.7621},
      {"measurement": "logFC", "setting": "[5]; degron residues 146/147/149/150/152/153/154/155/167: FADIGAEFL", "value": -0.08962},
      {"measurement": "Log2FC", "setting": "[5]; degron residues 146/147/149/150/152/153/154/155/167: FWDIGAAFL (WDIA)", "value": "4.2601 and 4.26"},
      {"measurement": "Log2FC", "setting": "[5]; degron residues 146/147/149/150/152/153/154/155/167: FWDIGANFL", "value": "4.2762 and 4.276"},
      {"measurement": "Log2FC", "setting": "[5]; degron residues 146/147/149/150/152/153/154/155/167: FWDIGASFL", "value": 4.2199},
      {"measurement": "Log2FC", "setting": "[5]; degron residues 146/147/149/150/152/153/154/155/167: FWDVGAAFL", "value": 4.1742},
      {"measurement": "Log2FC", "setting": "[5]; degron residues 146/147/149/150/152/153/154/155/167: FWDVGAQFL", "value": 4.2369},
      {"measurement": "Log2FC", "setting": "[5]; degron residues 146/147/149/150/152/153/154/155/167: FWDVGASFL", "value": 4.2017},
      {"measurement": "Log2FC", "setting": "[5]; degron residues 146/147/149/150/152/153/154/155/167: FWEIGACFL", "value": 4.1830},
      {"measurement": "Log2FC", "setting": "[5]; degron residues 146/147/149/150/152/153/154/155/167: FWEIGAHFL", "value": 4.1861},
      {"measurement": "Log2FC", "setting": "[5]; degron residues 146/147/149/150/152/153/154/155/167: FWEIGAKFL (WEIK)", "value": 4.1692},
      {"measurement": "Log2FC", "setting": "[5]; degron residues 146/147/149/150/152/153/154/155/167: FWEIGASFL (WEIS)", "value": "4.4149 and 4.45 and 4.449"},
      {"measurement": "Log2FC", "setting": "[5]; degron residues 146/147/149/150/152/153/154/155/167: FWEQGASFL", "value": 4.1915},
      {"measurement": "Log2FC", "setting": "[5]; degron residues 146/147/149/150/152/153/154/155/167: FWEVGAQFL", "value": 4.1344},
      {"measurement": "Log2FC", "setting": "[5]; degron residues 146/147/149/150/152/153/154/155/167: FWEVGASFL", "value": "4.2567 and 4.257"},
      {"measurement": "Log2FC", "setting": "[5]; degron residues 146/147/149/150/152/153/154/155/167: FWNIGAQFL (WNIQ)", "value": "4.2715 and 4.27 and 4.275"},
      {"measurement": "Log2FC", "setting": "[5]; degron residues 146/147/149/150/152/153/154/155/167: FWNQGASFL (WNQS)", "value": 3.90},
      {"measurement": "Log2FC", "setting": "[5]; degron residues 146/147/149/150/152/153/154/155/167: FWNVGASFL", "value": 4.1357},
      {"measurement": "Log2FC", "setting": "[5]; degron residues 146/147/149/150/152/153/154/155/167: FWPVGAQFL", "value": 4.1974},
      {"measurement": "Log2FC", "setting": "[5]; degron residues 146/147/149/150/152/153/154/155/167: FYEIGASFL", "value": 4.1371},
      {"measurement": "Log2FC", "setting": "[5]; degron residues 146/147/149/150/152/153/154/155/167: FYEVGAEFL", "value": 4.1417},
      {"measurement": "Log2FC", "setting": "[5]; degron residues 146/147/149/150/152/153/154/155/167: FYEVGASFL", "value": 4.2356},
      {"measurement": "D max", "setting": "[6]", "value": 66, "unit": "%"},
      {"measurement": "DC50", "setting": "[6]", "value": 1270, "unit": "nM"},
      {"measurement": "D max", "setting": "[7]; 6 h", "value": 53, "unit": "%"},
      {"measurement": "D max", "setting": "[7]; 18 h", "value": 35, "unit": "%"},
      {"measurement": "DC50", "setting": "[7]; 18 h", "value": 290, "unit": "nM"},
      {"measurement": "proteins degraded (quantitative proteomics)", "setting": "[8]", "value": "no major effect on any of the 9644 quantified proteins"},
      {"measurement": "degradation of endogenous IKZF1", "setting": "[9]", "value": "did not induce degradation of endogenous IKZF1"},
      {"measurement": "Dmax", "setting": "[10]", "value": 79, "unit": "%"}
    ]}
  ]
}
